Measured values taken from patent publication US8425945B2, “Methods and compositions for regulating biofilm development” (NewSouth Innovations Pty Limited, priority 2005, dated 2013).

How the values were obtained:
P. aeruginosa PAO1 = experiment: Biofilm to planktonic transition on microscope slides in petri dishes with NO donors/scavenger; assay type: cell-based, Pseudomonas aeruginosa; settings: for biofilm formation (percentage of surface coverage) / planktonic growth (OD600 nm of supernatant): NO donor 1 μM, 24 hours, lesser extent than SNP
S. marcescens biofilms = experiment: Dispersal of biofilms on slides, surface coverage; assay type: cell-based, Serratia marcescens; settings: SNAP 100 nM, 24 hours
Vibrio cholerae biofilms = experiment: Dispersal of biofilms on slides, surface coverage; assay type: cell-based; settings: 1 μM GSNO, 24 hours
P. aeruginosa biofilms = experiment: Sensitivity of biofilms grown with SNP to antimicrobial agents; assay type: cell-based, Pseudomonas aeruginosa; settings: tobramycin 100 μM, 30 minutes, with 500 nM SNP

SMILES	biofilm formation (percentage of surface coverage) (P. aeruginosa PAO1)	planktonic growth (OD600 nm of supernatant) (P. aeruginosa PAO1)	further results
CC(=O)N[C@H](C(=O)O)C(C)(C)SN=O (racemic) [SNAP, S-nitroso-N-acetylpenicillamine]	decreases in biofilm formation	increases in planktonic growth	dispersal of biofilms (S. marcescens biofilms): effective for dispersal
N[C@@H](CCC(=O)N[C@@H](CSN=O)C(=O)NCC(=O)O)C(=O)O [GSNO, S-nitroso-L-glutathione]	decreases in biofilm formation	increases in planktonic growth	stability of biofilms (Vibrio cholerae biofilms): significant effect on stability
CC1(C)N([O])C(c2ccccc2)=[N+]([O-])C1(C)C [PTIO, 2-phenyl-4,4,5,5-tetramethyl-imidazoline-1-oxyl 3-oxide]			reduction of the SNP effect in both planktonic and biofilm phenotypes (P. aeruginosa PAO1; PTIO 1 mM in addition to SNP 500 nM): ≥ 40%
NC[C@H]1O[C@H](O[C@H]2[C@H](O)[C@@H](O[C@H]3O[C@H](CO)[C@@H](O)[C@H](N)[C@H]3O)[C@H](N)C[C@@H]2N)[C@H](N)C[C@@H]1O [tobramycin]			antimicrobial giving the highest effect in combination with SNP (P. aeruginosa biofilms): highest effect
